# Test results reported in publication PMC4459817, “Vasculotide reduces endothelial permeability and tumor cell extravasation in the absence of binding to or agonistic activation of Tie2” (EMBO Molecular Medicine, 2015).
# B1: recombinant human Ang1 (rhAng1) (ligand, UniProt Q15389 16-498, looked up)
# chain: HIGCSNQRRSPENSGRRYNRIQHGQCAYTFILPEHDGNCRESTTDQYNTNALQRDAPHVEPDFSSQKLQHLEHVMENYTQWLQKLENYIVENMKSEMAQIQQNAVQNHTATMLEIGTSLLSQTAEQTRKLTDVETQVLNQTSRLEIQLLENSLSTYKLEKQLLQQTNEILKIHEKNSLLEHKILEMEGKHKEELDTLKEEKENLQGLVTRQTYIIQELEKQLNRATTNNSVLQKQQLELMDTVHNLVNLCTKEGVLLKGGKREEEKPFRDCADVYQAGFNKSGIYTIYINNMPEPKKVFCNMDVNGGGWTVIQHREDGSLDFQRGWKEYKMGFGNPSGEYWLGNEFIFAITSQRQYMLRIELMDWEGNRAYSQYDRFHIGNEKQNYRLYLKGHTGTAGKQSSLILHGADFSTKDADNDNCMCKCALMLTGGWWFDACGPSNLNGMFYTAGQNHGKLNGIKWHYFKGPSYSLRSTTMMIRPLDF
# notes: angiopoietin-1, human, recombinant; also called angiopoietin-1; source: bought: R&D Systems (named for the Boyden chamber experiments)
# Tested on: human microvascular ECs of lung blood vessel origin (HMVEC-LBl)
# Test: modified Boyden chamber, thrombin-stimulated FITC-dextran permeability, HMVEC-LBl
# Format: cell-based
# Conditions: VT 10–20 ng/mL, Ang1 200–400 ng/mL, 30 min pretreatment, FITC fluorescence ex/em 490/520 nm, n = 3–5 inserts, unpaired t-test, Fig1A
# Method: ECs were first treated with Vasculotide (VT), PBS (vehicle/negative control), Ang1 (positive control), PEG-Cys (polyethylene glycol backbone), T7c (non-PEGylated CHHHRHSF peptides), or VT in the presence of 100-fold molar excess of T7c. The concentrations used, 10–20 ng/mL VT and 200–400 ng/mL Ang1, are estimated molar equivalents (0.71–1.43 nM). Thirty minutes later, ECs were stimulated with thrombin, 0.1% BSA (vehicle/negative control), or EDTA (positive control). Another 30mins later, the amount of FITC-dextran diffusion into the lower chambers (A, D) provides a measure of endothelial permeability. CMTPX-labeled tumor cells (TCs) were then dispensed into inserts, and the amount of TC fluorescence emitting from the underside of insert membranes after 20 h (B–C) or 28 h (E) reflects the efficiency of trans-endothelial TC migration. […] Three experiments (twice with HMVEC-LBl and once with HMVEC-DBl) were run with n = 3–5 inserts (independent biological replicates) per group and analyzed by two-sampled unpaired t-tests. […]
# Endothelial cells (ECs) were grown on cell culture inserts with uncoated 8-μm-pore PET filter membranes to 100% confluency. […] After 30 min of thrombin stimulation or 4–6 h of TC-CM stimulation, FITC fluorescence (ex/em = 490/520 nm) was measured from a 50 μl sample of the lower chamber media. […]
row,Molecule,transendothelial permeability of FITC-dextran
1,"CHHHRHSF [Vasculotide, 4-armed maleimide-functionalized polyethylene glycol (PEG) backbone to link together four cysteine-capped T7 peptides, that is, CHHHRHSF]",counteract thrombin-stimulated increases in transendothelial permeability of FITC-dextran (P < 0.05
2,B1,counteract thrombin induction of trans-endothelium macromolecular permeability
